Source: ChEMBL document CHEMBL1149799, “Bioactive peroxides as potential therapeutic agents” (Eur J Med Chem, 2008)
In brackets after ≈: the same amount, converted by molar mass.

Assays:
[1] = Cytotoxicity against human CFUGM; assay type: functional; settings: CFU-GM
[2] = Cytotoxicity against mouse Ehrlich Ascites carcinoma by […] assay; assay type: functional
[3] = Cytotoxicity against mouse Ehrlich Ascites carcinoma by clonogenic assay; assay type: functional
A549 [4] = experiment: Cytotoxicity against human A549 cells by soft agar assay; assay type: functional
[5] = Cytotoxicity against human IGRO cells by soft agar assay; assay type: functional
HL-60 = experiment: Cytotoxicity against human HL60 cells by soft agar assay; assay type: functional
786-0 = experiment: Cytotoxicity against human renal 7860 cells by soft agar assay; assay type: functional
KM12 = experiment: Cytotoxicity against human KM12 cells by soft agar assay; assay type: functional
[6] = Cytotoxicity against human LOX cells by soft agar assay; assay type: functional
MOLT-4 = experiment: Cytotoxicity against human MOLT4 cells by soft agar assay; assay type: functional
MCF7 = experiment: Cytotoxicity against human MCF7 cells; assay type: functional, cell-based
P388 = experiment: Cytotoxicity against mouse P388 cells; assay type: functional, cell-based; settings: Mus musculus, P388; read-out: ED50 (the source's name)
KM-20L2 = experiment: Cytotoxicity against human KM20L2 cells; assay type: functional
SF-268 = experiment: Cytotoxicity against human SF268 cells; assay type: functional, cell-based
BXPC-3 = experiment: Cytotoxicity against human BXPC3 cells; assay type: functional
DU-145 = experiment: Cytotoxicity against human DU145 cells; assay type: functional, cell-based
NCI-H460 = experiment: Cytotoxicity against human NCI-H460 cells; assay type: functional, cell-based
PC-3 = experiment: Cytotoxicity against human PC3 cells; assay type: functional, cell-based
[7] = Cytotoxicity against human HERP3B cells; assay type: functional
[8] = Cytotoxicity against human H116 cells; assay type: functional, cell-based
A549 [9] = experiment: Cytotoxicity against human A549 cells; assay type: functional, cell-based; settings: Homo sapiens, A549; for EC50: read-out: ED50 (the source's name)
SK-BR-3 = experiment: Cytotoxicity against human SKBR3 cells; assay type: functional, cell-based
PSN1 = experiment: Cytotoxicity against human PSN1 cells; assay type: functional, cell-based
T98G = experiment: Cytotoxicity against human T98G cells; assay type: functional, cell-based
WEHI-164 = experiment: Cytotoxicity against mouse WEHI164 cells; assay type: functional, cell-based
HeLa = experiment: Cytotoxicity against human HeLa cells; assay type: functional, cell-based
BT-549 = experiment: Cytotoxicity against human BT549 cells by soft agar assay; assay type: functional
Plasmodium falciparum = experiment: Antimalarial activity against Plasmodium falciparum W2; assay type: functional, organism-based
[10] = Cytotoxicity against human NCI60 cells; assay type: functional
Candida albicans = experiment: Antifungal activity against Candida albicans; assay type: functional
KB = experiment: Cytotoxicity against human KB cells; assay type: functional, cell-based; settings: Homo sapiens, KB; read-out: ED50 (the source's name)
[11] = Cytotoxicity against human […] cells; assay type: functional; settings: read-out: ED50 (the source's name)
L1210 = experiment: Cytotoxicity against mouse L1210 cells; assay type: functional, cell-based; settings: Mus musculus, L1210

C=C1C(=O)O[C@@H]2O[C@@]3(C)CC[C@H]4[C@H](C)CC[C@@H]1[C@@]24OO3
IC50 [1]: 1.7 µM | IC50 [2]: 11.3 µM | IC50 [3]: 10 µM

C=C1CCCC(C)(C)C1(O)CC/C(C)=C/CC[C@]1(C)CC[C@@H]([C@@H](C)C(=O)OC)OO1 (some centres undefined) [MUQUBILIN B]
GI50 (A549 [4]): > 5 µM | GI50 [5]: 2.42 µM | GI50 (HL-60): > 5 µM | GI50 (786-0): > 5 µM | GI50 (KM12): > 5 µM | GI50 [6]: > 5 µM | GI50 (MOLT-4): > 5 µM

CC/C(=C\[C@@]1(CC)C[C@H](CC)[C@H](CC(=O)OC)OO1)[C@@H]1O[C@@H]1CC [PLAKORSTATIN 2]
GI50 (MCF7): 3.8 | EC50 (P388): 0.91 µg/mL (≈ 2.67 µM) | GI50 (KM-20L2): 6.7 | GI50 (SF-268): 1.6 | GI50 (BXPC-3): 6.4 | GI50 (DU-145): 1.7 | GI50 (NCI-H460): >10

CCOc1ccc(OOc2ccc(OCC)c3cc4c(cc23)[C@]2(C)CCC(=O)c3coc(c32)C4=O)c2cc3c(cc12)[C@@]1(C)CCC(=O)c2coc(c21)C3=O
Activity (PC-3): 35 | Activity [7]: 5

C[C@@H]1C[C@@H]([C@H](O)CC2CC(=O)NC(=O)C2)C(=O)[C@@H](C)C1 [CYCLOHEXIMIDE]
IC50 [8]: 0.1 µg/mL (≈ 0.355 µM) | IC50 (A549 [9]): 0.1 µg/mL (≈ 0.355 µM) | IC50 (SK-BR-3): 0.05 µg/mL (≈ 0.178 µM) | IC50 (PSN1): 0.01 µg/mL (≈ 0.0355 µM) | IC50 (T98G): 2.5 µg/mL (≈ 8.89 µM)

CCCCC(CC)C/C(C)=C/[C@@]1(CC)C[C@@H](CC)[C@@H](CC(=O)OC)OO1 (some centres undefined)
IC50 (WEHI-164): 9.5 µg/mL (≈ 25.8 µM)

COc1ccc(OOc2ccc(OC)c3cc4c(cc23)[C@]2(C)CCC(=O)c3coc(c32)C4=O)c2cc3c(cc12)[C@@]1(C)CCC(=O)c2coc(c21)C3=O
Activity (PC-3): 56 | Activity [7]: 5

C[C@H](C(=O)O)[C@@H]1CC[C@@](C)(CC[C@@]2(C)C3=CCCC(C)(C)[C@@H]3CC[C@H]2C)OO1 [MYCAPEROXIDE H]
IC50 (HeLa): 0.8 µg/mL (≈ 2.04 µM)

CC(C)(OO)C1=C[C@@]23CCC4C(C)(C)CCC[C@]4(C)[C@H]2C[C@H]1OO3 (some centres undefined)
IC50 [8]: 2.5 µg/mL (≈ 7.43 µM) | IC50 (A549 [9]): 5 µg/mL (≈ 14.9 µM) | IC50 (SK-BR-3): > 5 µg/mL | IC50 (PSN1): 5 µg/mL (≈ 14.9 µM) | IC50 (T98G): > 5 µg/mL

C=C1CCC[C@H]2[C@](C)(CC[C@]3(C)CC[C@H]([C@@H](C)C(=O)O)OO3)[C@@H](C)CC[C@]12C [SIGMOSCEPTRELLIN A]
GI50 [5]: 0.12 µM | GI50 (BT-549): 0.96 µM

C=C1CCCC(C)(C)C1(O)CC/C(C)=C/CC[C@]1(C)CC[C@H]([C@@H](C)C(=O)OC)OO1 (some centres undefined) [EPIMUQUBILIN B]
GI50 (A549 [4]): > 5 µM | GI50 [5]: > 5 µM | GI50 (HL-60): > 5 µM | GI50 (786-0): > 5 µM | GI50 (KM12): > 5 µM | GI50 (BT-549): > 5 µM | GI50 (MOLT-4): > 5 µM

CCC/C=C/[C@]1(CC)C[C@H](CC)[C@H](CC(=O)O)OO1 [PLAKORTIDE L]
IC50 (Plasmodium falciparum): 0.57 µg/mL (≈ 2.11 µM)

CC1(C)CC(C23C=CC(CO)(CCC2)OO3)CCC1Br (centres undefined) [MAJAPOLENES A]
GI50 [10]: 0.4 µM | TGI [10]: 0.9 µM | CC50 ([10]; read-out: LC50 (the source's name)): 2.8 µM

CCC/C=C/[C@]1(CC)C[C@H](CC)[C@H](CC(=O)OC)OO1 [PLAKORTIDE K]
IC50 (Plasmodium falciparum): 0.57 µg/mL (≈ 2 µM)

CC1=C(CC/C(C)=C/CC[C@@]2(C)CC[C@@H]([C@H](C)C(=O)O)OO2)C(C)(C)CCC1 [EPIMUQUBILIN A]
GI50 (A549 [4]): > 5 µM | GI50 [5]: > 5 µM | GI50 (HL-60): > 5 µM | GI50 (786-0): > 5 µM | GI50 (KM12): > 5 µM | GI50 (BT-549): > 5 µM | GI50 [6]: > 5 µM | GI50 (MOLT-4): > 5 µM

CC(=O)O[C@H]1C(=O)[C@@]2(C)[C@H]([C@H](OC(=O)c3ccccc3)[C@]3(O)C[C@H](OC(=O)[C@H](O)[C@@H](NC(=O)c4ccccc4)c4ccccc4)C(C)=C1C3(C)C)[C@]1(OC(C)=O)CO[C@@H]1C[C@@H]2O [PACLITAXEL]
Activity (PC-3): 80 | Activity [7]: 85

C[C@@H]1CC[C@H]2[C@@H](C)C(=O)O[C@@H]3O[C@@]4(C)CC[C@@H]1[C@]32OO4 [ARTEMISININ]
IC50 [1]: 385 µM | IC50 [2]: > 723 µM | IC50 [3]: > 1000 µM

CC(CCCCCC/C=C\C=C\c1ccccc1)CC1(C)CC(C)(CC(=O)O)OO1 (single isomer, unassigned)
MIC (Candida albicans): 1.6 µg/mL (≈ 3.86 µM)

CC/C(=C\[C@@]1(CC)C[C@H](CC)[C@H](CC(=O)OC)OO1)[C@H]1O[C@H]1CC [PLAKORSTATIN 1]
GI50 (MCF7): >10 | EC50 (P388): 1.1 µg/mL (≈ 3.23 µM) | GI50 (KM-20L2): >10 | GI50 (SF-268): 1.8 | GI50 (BXPC-3): >10 | GI50 (DU-145): >10 | GI50 (NCI-H460): >10

C=C(C)[C@@H](CC)CC[C@@H](C)[C@H]1CC[C@H]2[C@@H]3C=C[C@@]4(OO)C[C@@H](O)CC[C@]4(C)[C@H]3CC[C@@H]21
EC50 (P388): 0.5 µg/mL (≈ 1.16 µM) | EC50 (KB): 1 µg/mL (≈ 2.32 µM) | EC50 [11]: 0.9 µg/mL (≈ 2.09 µM) | EC50 (A549 [9]): 1.1 µg/mL (≈ 2.55 µM)

CC/C=C/C(CC)C/C(C)=C/[C@]1(CC)C[C@@H](CC)[C@H](CC(=O)OC)OO1 (some centres undefined)
IC50 (WEHI-164): 8.2 µg/mL (≈ 22.4 µM)

C=C1CCCC(C)(C)C1CC[C@]1(C)CC[C@H]([C@@H](C)C(=O)OC)OO1 (some centres undefined) [NUAPAPUIN B]
GI50 [5]: 0.5 µM | GI50 [6]: 0.47 µM | GI50 (MOLT-4): > 5 µM

C=CC(C[C@@H](C)[C@H]1CC[C@H]2[C@@H]3CC=C4C[C@@H](O)CC[C@]4(C)[C@H]3CC[C@]12C)(OO)C(C)C (some centres undefined)
EC50 (P388): 0.3 µg/mL (≈ 0.697 µM) | EC50 (KB): 1.8 µg/mL (≈ 4.18 µM) | EC50 [11]: 5.9 µg/mL (≈ 13.7 µM) | EC50 (A549 [9]): 7.1 µg/mL (≈ 16.5 µM)

CCC(=O)/C=C/[C@@]1(CC)C[C@H](CC)[C@H](CC(=O)OC)OO1 [PLAKORTOLIDE I(M)]
IC50 (Plasmodium falciparum): 0.57 µg/mL (≈ 1.91 µM)

C=C(C)[C@@H](CC)CC[C@@H](C)[C@H]1CC[C@@H]2[C@@H]1CC[C@H]1[C@H]2[C@@H](OO)C=C2C[C@@H](O)CC[C@@]21C
EC50 (P388): 0.4 µg/mL (≈ 0.929 µM) | EC50 (KB): 1 µg/mL (≈ 2.32 µM) | EC50 [11]: 1 µg/mL (≈ 2.32 µM) | EC50 (A549 [9]): 0.5 µg/mL (≈ 1.16 µM)

CC(CCCCCC/C=C\C=C\c1ccccc1)C[C@]1(C)C[C@](C)(CC(=O)O)OO1 (some centres undefined)
MIC (Candida albicans): 1.6 µg/mL (≈ 3.86 µM)

CC(C)(O)C1=C[C@@]23CCC4C(C)(C)CCC[C@]4(C)[C@H]2C[C@H]1OO3 (some centres undefined)
IC50 [8]: > 5 µg/mL | IC50 (A549 [9]): > 5 µg/mL | IC50 (SK-BR-3): > 5 µg/mL | IC50 (PSN1): > 5 µg/mL | IC50 (T98G): > 5 µg/mL

C=C[C@@H](O)C#CC#C/C=C/C(CCCCCCC)OO (some centres undefined) [GINSENOYNE K]
IC50 (L1210): 1.8 µg/mL (≈ 6.51 µM) | IC50 (HeLa): 10.5 µg/mL (≈ 38 µM)

C=C1CCCC(C)(C)C1CC[C@]1(C)CC[C@@H]([C@@H](C)C(=O)O)OO1 (some centres undefined) [EPINUAPAPUIN B]
GI50 (A549 [4]): > 5 µM | GI50 [5]: 1.73 µM | GI50 (786-0): > 5 µM | GI50 (KM12): > 5 µM | GI50 (BT-549): > 5 µM | GI50 (MOLT-4): > 5 µM

C=C1CCCC(C)(C)C1CC[C@@]1(C)CC[C@H]([C@@H](C)C(=O)O)OO1 (some centres undefined) [NAPAPUIN B]
GI50 [5]: 0.63 µM | GI50 [6]: 0.25 µM

C=C1CCC[C@@H]2[C@@H](CC[C@@]3(C)CC[C@H]([C@H](C)C(=O)O)OO3)[C@H](C)CC[C@@]12C [SIGMOSCEPTRELLIN B]
GI50 (A549 [4]): 0.94 µM | GI50 [5]: 0.1 µM | GI50 (HL-60): 0.14 µM | GI50 (786-0): 0.5 µM | GI50 (KM12): 0.95 µM | GI50 (BT-549): 0.96 µM | GI50 [6]: 0.16 µM | GI50 (MOLT-4): 0.84 µM

CC/C=C/C(CC)C/C(C)=C/[C@]1(CC)C[C@H](CC)[C@H](CC(=O)OC)OO1 (some centres undefined) [PLAKORTIDE H]
IC50 (WEHI-164): 7.1 µg/mL (≈ 19.4 µM)

CC(C)/C(=C\COO)CC[C@@H](C)[C@H]1CC[C@@H]2[C@@H]1CC[C@H]1[C@H]2CC=C2C[C@@H](O)CC[C@@]21C
EC50 (P388): 0.5 µg/mL (≈ 1.16 µM) | EC50 (KB): 2.2 µg/mL (≈ 5.11 µM) | EC50 [11]: 5 µg/mL (≈ 11.6 µM) | EC50 (A549 [9]): 2.2 µg/mL (≈ 5.11 µM)
